Laboratory results: patent publication US7098336B2, “FXR NR1H4 nuclear receptor binding compounds” (Phenex Pharmaceuticals AG, priority 2001, dated 2006)
Where two headings read alike, the source gives them in different places.

Legend:
human FXR alpha (NR1H4) [1] = target: T1, human FXR alpha (NR1H4) (Homo sapiens, UniProt Q96RI1); assay: In vitro LANCE TR-FRET screening for FXR binding to coactivator TIF2; type: biochemical
T1 sequence (Q96RI1 1-472 isoform Q96RI1-2): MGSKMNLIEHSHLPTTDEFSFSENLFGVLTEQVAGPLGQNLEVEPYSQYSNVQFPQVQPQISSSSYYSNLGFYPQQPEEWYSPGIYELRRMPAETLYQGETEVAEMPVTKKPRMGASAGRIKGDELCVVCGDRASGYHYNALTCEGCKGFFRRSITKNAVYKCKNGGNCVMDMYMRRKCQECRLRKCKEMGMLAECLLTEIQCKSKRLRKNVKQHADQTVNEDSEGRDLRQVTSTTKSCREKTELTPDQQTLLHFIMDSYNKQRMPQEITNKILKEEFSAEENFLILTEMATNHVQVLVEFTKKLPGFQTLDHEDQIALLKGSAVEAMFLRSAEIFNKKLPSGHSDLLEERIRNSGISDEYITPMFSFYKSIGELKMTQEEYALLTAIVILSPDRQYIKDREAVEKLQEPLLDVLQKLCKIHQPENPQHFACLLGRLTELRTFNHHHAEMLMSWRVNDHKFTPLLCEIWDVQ
Excerpt: For screening purposes a fragment of the open reading frame of human FXR alpha (NR1H4-(Acc. No: AF384555)) encoding aminoacids 187–472 was amplified by standard RT PCR procedures (see figures; SEQ ID NO. 1 and 2). Starting material was total RNA derived from human liver. The resulting cDNA obtained after reverse transcription was subsequently cloned using the Gateway™ recombination technology (Invitrogen, USA) into the expression plasmid pDest15 (Invitrogen, USA). This construct was used to express a recombinant GST-FXR fusion protein in E. coli (BL21 strain). A pDEST 17 derivative clone harboring an additional sequence encoding amino acids 548–878 of human TIF2 (Acc. No: XM—011633 RefSeq) was constructed using Gateway™ recombination technology (Invitrogen, USA) in order to obtain a construct which was used to express recombinant His-tagged TIF2 fragment could be expressed in E. coli. […]
For screening of compound libraries as provided for by the methods shown below in the examples for substances which influence the FXR/Tif 2 interaction, the Perkin Elmer LANCE technology was applied. […] For ease of handling and reduction of background from compound fluorescence LANCE technology makes use of generic fluorophore labels and time resoved detection (for detailed description see Hemmilä I, Blomberg K and Hurskainen P, Time-resolved resonance energy transfer (TR-FRET) principle in LANCE, Abstract of Papers Presented at the 3 rd Annual Conference of the Society for Biomolecular Screening, September, California (1997). […]
The LANCE signal was detected by a Perkin Elmer VICTOR2V™ Multilabel Counter applying the detection parameters listed in Table 1 below. […] For every batch of recombinant proteins amount of proteins and labeling reagents giving the most sensitive detection of hits was determined individually by analysis of dose response curves for chenodeoxycholic acid.

full length human FXR = target: T2, full length human FXR (Homo sapiens, UniProt Q96RI1); assay: Cellular gene reporter assay in stable HEK293-FXR reporter cell line (luciferase); type: cell-based; conditions: HEK293-FXR reporter cells, 16 hours incubation, FIG. 3
T2 construct: expressed in transfected cells; host or cells: HEK293, stably transfected with pTRexDest30-hFXR, pTRexDest30-hRXR and pGL2promoter-FXRRE
T2 sequence (Q96RI1 1-472 isoform Q96RI1-2): T1 sequence (Q96RI1 1-472 isoform Q96RI1-2)
T2 sequence (P19793 1-462 partner): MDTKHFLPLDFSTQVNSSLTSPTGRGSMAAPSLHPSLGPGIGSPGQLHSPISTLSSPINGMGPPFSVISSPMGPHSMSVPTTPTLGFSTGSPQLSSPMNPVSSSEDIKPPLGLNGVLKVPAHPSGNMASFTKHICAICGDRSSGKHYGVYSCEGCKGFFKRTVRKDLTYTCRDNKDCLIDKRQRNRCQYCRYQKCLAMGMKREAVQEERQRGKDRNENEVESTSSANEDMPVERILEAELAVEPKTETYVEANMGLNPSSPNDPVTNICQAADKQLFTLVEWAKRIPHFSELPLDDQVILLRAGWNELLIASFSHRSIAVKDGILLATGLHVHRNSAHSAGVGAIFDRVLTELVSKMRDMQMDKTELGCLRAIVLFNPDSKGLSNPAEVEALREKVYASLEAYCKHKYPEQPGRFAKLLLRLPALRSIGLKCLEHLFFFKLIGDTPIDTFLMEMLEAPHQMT
Excerpt: This example illustrates that a compound according to the invention can mediate transactivation of FXR mediated transcription in a HEK293 reporter cell line. Experiments shown were done with MOLSTRUCTURE LN 6691 (see structural formula below).
Stable HEK293-FXR reporter cell lines were generated by stably transfecting with the pTRexDest30 (Invitrogen) derivatives pTRexDest30-hFXR, pTRexDest30-hRXR and the pGL2promoter (Promega) derivative pGL2promoter-FXRRE. The full length human FXR (accession U68233) and the full length human RXRα (accession P19793) were cloned into the pTRexDest30 applying the manufacturer protocols for the Gateway™ system (Invitrogen).
The FXR response elements were (upper case and underlined) 5′-cccaGGGTGAaTAACCTcggggctctgtccctccaatcccaGGGTGAaTAACCTcggg 3′ (SEQ ID NO. 5) was created from the human IBAB-P promoter (Grober et al 1999, JBC 274, pp. 29749–29754) and integrated into the reporter plasmid pGL2promoter (Promega) according to standard methods known to those skilled in the art. […] Luciferase reporter activity were determined in triplicates from extracts of cells after incubating cells in culture medium (DMEM [Gibco-BRL]+10% FCS [PAA laboratories]) for 16 hours (5% CO2, 37° C.) containing 0.5% DMSO (control) or 0.5% DMSO with increasing concentrations of LN6691 (FIG. 3).

human FXR alpha (NR1H4) [2] = target: T1, human FXR alpha (NR1H4); assay: In vitro LANCE TR-FRET screening for FXR binding to coactivator TIF2; type: biochemical; set-up: EC50 AVG; other: relative to CDCA control agonist; fused on or other part: GST at the N-terminus (pDest15); conditions: for Emax: read-out: EFFIC AVG (average efficacy, % activity relative to CDCA control agonist)
Excerpt: For screening purposes a fragment of the open reading frame of human FXR alpha (NR1H4-(Acc. No: AF384555)) encoding aminoacids 187–472 was amplified by standard RT PCR procedures (see figures; SEQ ID NO. 1 and 2). Starting material was total RNA derived from human liver. The resulting cDNA obtained after reverse transcription was subsequently cloned using the Gateway™ recombination technology (Invitrogen, USA) into the expression plasmid pDest15 (Invitrogen, USA). This construct was used to express a recombinant GST-FXR fusion protein in E. coli (BL21 strain). A pDEST 17 derivative clone harboring an additional sequence encoding amino acids 548–878 of human TIF2 (Acc. No: XM—011633 RefSeq) was constructed using Gateway™ recombination technology (Invitrogen, USA) in order to obtain a construct which was used to express recombinant His-tagged TIF2 fragment could be expressed in E. coli. For E. coli expression of both constructs, plasmid DNA was transformed into chemically competent E. coli BL21 (Invitrogen, USA) and cells were grown to an OD600 of 0.4–0.7 before expression was induced by addition of 0.5 mM IPTG according instructions of the manufacturer (Invitrogen). After induction for 8 hours at 30° C. cells were harvested by centrifugation for 10 minutes at 5000×g. Fusion proteins were affinity purified using Glutathion sepharose (Pharmacia) or Ni-NTA Agarose (QIAGEN) according to the instructions of the respective manufacturer. Recombinant proteins were dialyzed against 20 mM Tris/HCL pH 7.9; 60 mM KCl; 5 mM MgCl2; 1 mM DTT, 0.2 mM PMSF; 10% glycerol. The TIF2 fragment was subsequently biotinylated by addition of 40–120 μl of a Biotinamidocaproate N-Hydroxysuccinimide-ester (Sigma) solution (20 mg/ml in DMSO). Overhead rotating samples were incubated for 2 hours at room temperature. Unincorporated label was then separated using G25 Gel filtration chromatography (Pharmacia Biotech, Sweden). Protein containing fractions from the column were pooled and tested for activity in the assay as described below.
For screening of compound libraries as provided for by the methods shown below in the examples for substances which influence the FXR/Tif 2 interaction, the Perkin Elmer LANCE technology was applied. This method relies on the binding dependent energy transfer from a donor to an acceptor fluorophore attached to the binding partners of interest. For ease of handling and reduction of background from compound fluorescence LANCE technology makes use of generic fluorophore labels and time resoved detection (for detailed description see Hemmilä I, Blomberg K and Hurskainen P, Time-resolved resonance energy transfer (TR-FRET) principle in LANCE, Abstract of Papers Presented at the 3 rd Annual Conference of the Society for Biomolecular Screening, September, California (1997).
For screening, 20–200 ng of biotinylated Tif 2 fragment and 10–200 ng of GST-FXR fragment were combined with 0.5–2 nM LANCE Eu-(W1024) labelled anti-GST antibody (Perkin Elmer) and 0.5–2 μg of Highly fluorescent APC-labelled streptavidin (Perkin Elmer) in the presence of 50 μM of individual compounds to be screened in a total volume of 25 μl of 20 mM Tris/HCl pH 7.9; 60 mM KCl; 5 mM MgCl2; 160 ng/μl BSA. DMSO content of the samples was kept below 4%. Samples were incubated for a minimum of 60 minutes in the dark at room temperature in FIA-Plates black 384 well med. binding (Greiner).
The LANCE signal was detected by a Perkin Elmer VICTOR2V™ Multilabel Counter applying the detection parameters listed in Table 1 below. The results were visualized by plotting the ratio between the emitted light at 665 nm and at 615 nm. For every batch of recombinant proteins amount of proteins and labeling reagents giving the most sensitive detection of hits was determined individually by analysis of dose response curves for chenodeoxycholic acid.

[3] = established according to Example 1 (FRET), unit inferred, b76 prints 0.16 μM for the same value, read-out: EC50 AVG

Row | Compound | active as agonists of the NR1H4 human nuclear receptor (human FXR alpha (NR1H4) [1]) | EC50 (human FXR alpha (NR1H4) [2]; [3]) | Emax (human FXR alpha (NR1H4) [2]) | also measured
1 | O=C(O)[C@H]1CC[C@H](CNc2nc(-c3cccs3)cc(-c3ccccc3O)n2)CC1 [formula (7)] | active as agonists | – | – | –
2 | COc1ccccc1-c1cc(-c2ccccc2O)nc(NC[C@H]2CC[C@H](C(=O)O)CC2)n1 [LN0000006691] | – | – | – | EC50 (full length human FXR): 1300 nM
3 | COc1ccccc1-c1cc(-c2cc(C)ccc2O)nc(NC[C@H]2CC[C@H](C(=O)O)CC2)n1 [formula (6)] | active as agonists | – | – | –
4 | O=C(O)C1CCC(CNc2nc(-c3ccccc3O)cc(-c3ccccc3F)n2)CC1 (stereo not shown) [formula (5)] | active as agonists | – | – | –

Now from value to compound, other results behind:

Row | active as agonists of the NR1H4 human nuclear receptor (human FXR alpha (NR1H4) [1]) | EC50 (human FXR alpha (NR1H4) [2]; [3]) | Emax (human FXR alpha (NR1H4) [2]) | Compound | also measured
5 | – | 1660 nM | 111% | O=C(O)C1CCC(CNc2nc(-c3cccs3)cc(-c3ccccc3O)n2)CC1 (stereo not shown) [LN0000006692] | –
6 | – | – | 125% | COc1ccccc1-c1cc(-c2ccccc2O)nc(NCC2CCC(C(=O)O)CC2)n1 (stereo not shown) [LN0000006691] | relative efficacy compared to GW4064 as control compound (full length human FXR): about 110%; EC50 (human FXR alpha (NR1H4) [2]; read-out: EC50 at FXR (half-maximal effective concentration)): 160 nM
7 | – | 530 nM | 91% | O=C(O)C1CCC(CNc2nc(-c3ccccc3O)cc(-c3ccccc3F)n2)CC1 (stereo not shown) [LN0000007265] | –
8 | – | 1090 nM | 134% | COc1ccccc1-c1cc(-c2cc(C)ccc2O)nc(NCC2CCC(C(=O)O)CC2)n1 (stereo not shown) [LN0000002683] | –
